The values below come from ChEMBL document CHEMBL1772973, “Design, synthesis, radiolabeling, and in vitro and in vivo evaluation of bridgehead iodinated analogues of N-{2-[4-(2-methoxyphenyl)piperazin-1-yl]ethyl}-N-(pyridin-2-yl)cyclohexanecarboxamide (WAY-100635) as potential SPECT ligands for the 5-HT1A receptor” (J Med Chem, 2011).

Data set [1] concerns the target T1, 5-hydroxytryptamine receptor 1A (Homo sapiens, UniProt P08908).
T1 sequence (P08908 whole entry): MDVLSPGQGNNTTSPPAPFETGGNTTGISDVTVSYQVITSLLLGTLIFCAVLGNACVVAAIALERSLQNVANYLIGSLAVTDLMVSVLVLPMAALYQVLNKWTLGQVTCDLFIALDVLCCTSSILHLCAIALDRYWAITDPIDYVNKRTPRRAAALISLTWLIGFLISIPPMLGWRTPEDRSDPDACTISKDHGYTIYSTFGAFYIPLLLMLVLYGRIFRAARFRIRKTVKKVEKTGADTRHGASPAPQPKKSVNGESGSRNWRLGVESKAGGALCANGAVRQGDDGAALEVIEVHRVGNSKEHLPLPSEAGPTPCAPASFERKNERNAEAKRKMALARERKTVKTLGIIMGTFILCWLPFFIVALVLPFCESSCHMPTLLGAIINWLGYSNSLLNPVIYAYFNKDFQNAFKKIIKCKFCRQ
The data set can be described thus: biochemical.
Description: Displacement of [3H]8-OH-DPAT from human cloned 5HT1A receptor expressed in HEK293 EBNA cells after 1 hr by liquid scintillation counting

For data set [2], the target named is T2, Alpha-1A adrenergic receptor (Homo sapiens, UniProt P35348).
T2 sequence (P35348 whole entry): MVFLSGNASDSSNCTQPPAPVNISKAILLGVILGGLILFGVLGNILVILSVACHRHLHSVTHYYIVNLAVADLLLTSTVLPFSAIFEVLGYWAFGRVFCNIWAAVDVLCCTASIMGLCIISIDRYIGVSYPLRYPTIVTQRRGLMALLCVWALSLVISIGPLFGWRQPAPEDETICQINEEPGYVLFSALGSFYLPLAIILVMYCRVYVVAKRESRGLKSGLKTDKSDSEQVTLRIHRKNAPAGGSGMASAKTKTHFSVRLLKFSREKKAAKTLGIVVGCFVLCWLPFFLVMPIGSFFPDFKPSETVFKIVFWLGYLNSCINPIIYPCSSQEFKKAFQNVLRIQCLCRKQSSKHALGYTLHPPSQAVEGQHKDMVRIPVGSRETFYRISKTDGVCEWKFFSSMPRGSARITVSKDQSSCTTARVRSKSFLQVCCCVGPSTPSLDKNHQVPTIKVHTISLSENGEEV
Description: Inhibition of adrenergic alpha1A receptor

Another data set is described as follows: physchem. The settings on record: octanol/water, pH 7.4.
Data set [3] concerns the target T3, Alpha-1B adrenergic receptor (Homo sapiens, UniProt P35368).
T3 sequence (P35368 whole entry): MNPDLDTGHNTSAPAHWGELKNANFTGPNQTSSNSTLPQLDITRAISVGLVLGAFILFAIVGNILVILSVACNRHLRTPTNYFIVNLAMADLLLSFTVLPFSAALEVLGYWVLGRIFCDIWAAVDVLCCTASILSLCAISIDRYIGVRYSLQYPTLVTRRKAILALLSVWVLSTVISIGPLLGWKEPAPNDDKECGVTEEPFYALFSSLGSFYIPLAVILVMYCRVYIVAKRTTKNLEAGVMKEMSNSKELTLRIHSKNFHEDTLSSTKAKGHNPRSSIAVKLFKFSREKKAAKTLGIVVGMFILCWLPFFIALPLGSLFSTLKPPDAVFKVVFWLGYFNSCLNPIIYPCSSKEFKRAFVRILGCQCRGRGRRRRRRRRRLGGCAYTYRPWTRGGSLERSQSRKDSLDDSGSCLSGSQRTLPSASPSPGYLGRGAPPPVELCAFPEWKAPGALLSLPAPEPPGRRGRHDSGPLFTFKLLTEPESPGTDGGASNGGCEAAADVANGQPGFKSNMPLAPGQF
Description: Inhibition of adrenergic Alpha-1B receptor

Data set [4] addresses 5-hydroxytryptamine receptor 7 (Homo sapiens, UniProt P34969).
The target of data set [5] is 5-hydroxytryptamine receptor 1B (Homo sapiens, UniProt P28222).
Sequence of 5-hydroxytryptamine receptor 1B (P28222 whole entry): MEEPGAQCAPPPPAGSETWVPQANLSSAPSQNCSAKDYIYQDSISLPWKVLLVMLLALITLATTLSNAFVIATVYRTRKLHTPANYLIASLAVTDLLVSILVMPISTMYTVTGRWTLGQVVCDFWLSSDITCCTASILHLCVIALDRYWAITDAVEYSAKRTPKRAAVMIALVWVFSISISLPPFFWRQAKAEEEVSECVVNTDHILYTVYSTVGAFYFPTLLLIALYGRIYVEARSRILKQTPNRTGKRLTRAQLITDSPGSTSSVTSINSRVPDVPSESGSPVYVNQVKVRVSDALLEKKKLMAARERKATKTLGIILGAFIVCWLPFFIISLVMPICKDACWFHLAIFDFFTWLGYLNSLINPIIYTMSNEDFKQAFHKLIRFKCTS
Another data set addresses T4, D(4) dopamine receptor (Homo sapiens, UniProt P21917).
T4 sequence (P21917 whole entry): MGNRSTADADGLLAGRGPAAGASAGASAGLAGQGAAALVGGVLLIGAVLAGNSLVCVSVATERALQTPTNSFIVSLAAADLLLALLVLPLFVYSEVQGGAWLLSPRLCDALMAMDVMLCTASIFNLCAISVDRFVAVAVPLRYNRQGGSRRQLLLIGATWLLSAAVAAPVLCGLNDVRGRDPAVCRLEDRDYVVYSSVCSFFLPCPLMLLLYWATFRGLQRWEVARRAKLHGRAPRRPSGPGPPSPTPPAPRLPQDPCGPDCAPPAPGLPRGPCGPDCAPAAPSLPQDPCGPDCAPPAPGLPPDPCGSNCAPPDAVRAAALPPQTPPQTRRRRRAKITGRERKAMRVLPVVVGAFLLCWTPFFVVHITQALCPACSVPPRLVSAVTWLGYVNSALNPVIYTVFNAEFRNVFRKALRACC

Data set [6] concerns the target T5, Alpha-1D adrenergic receptor (Homo sapiens, UniProt P25100).
T5 sequence (P25100 whole entry): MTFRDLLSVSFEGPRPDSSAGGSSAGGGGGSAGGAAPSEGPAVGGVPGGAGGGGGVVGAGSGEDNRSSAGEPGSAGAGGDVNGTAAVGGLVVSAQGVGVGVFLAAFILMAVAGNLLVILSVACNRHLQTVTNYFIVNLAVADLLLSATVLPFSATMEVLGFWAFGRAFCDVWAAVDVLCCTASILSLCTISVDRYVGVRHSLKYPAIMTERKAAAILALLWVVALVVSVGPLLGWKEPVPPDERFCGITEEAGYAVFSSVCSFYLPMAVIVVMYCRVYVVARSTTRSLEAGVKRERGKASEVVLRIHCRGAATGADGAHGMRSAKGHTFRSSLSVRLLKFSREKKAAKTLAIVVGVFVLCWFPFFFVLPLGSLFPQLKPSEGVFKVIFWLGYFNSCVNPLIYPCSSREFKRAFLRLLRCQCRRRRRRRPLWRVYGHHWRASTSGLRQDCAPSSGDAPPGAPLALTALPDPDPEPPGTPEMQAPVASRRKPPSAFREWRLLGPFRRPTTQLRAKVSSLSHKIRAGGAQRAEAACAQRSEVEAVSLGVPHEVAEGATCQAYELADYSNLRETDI
Description: Inhibition of adrenergic Alpha-1D receptor

The target of data set [7] is T1, 5-hydroxytryptamine receptor 1A.

Sequence of 5-hydroxytryptamine receptor 7 (P34969 whole entry): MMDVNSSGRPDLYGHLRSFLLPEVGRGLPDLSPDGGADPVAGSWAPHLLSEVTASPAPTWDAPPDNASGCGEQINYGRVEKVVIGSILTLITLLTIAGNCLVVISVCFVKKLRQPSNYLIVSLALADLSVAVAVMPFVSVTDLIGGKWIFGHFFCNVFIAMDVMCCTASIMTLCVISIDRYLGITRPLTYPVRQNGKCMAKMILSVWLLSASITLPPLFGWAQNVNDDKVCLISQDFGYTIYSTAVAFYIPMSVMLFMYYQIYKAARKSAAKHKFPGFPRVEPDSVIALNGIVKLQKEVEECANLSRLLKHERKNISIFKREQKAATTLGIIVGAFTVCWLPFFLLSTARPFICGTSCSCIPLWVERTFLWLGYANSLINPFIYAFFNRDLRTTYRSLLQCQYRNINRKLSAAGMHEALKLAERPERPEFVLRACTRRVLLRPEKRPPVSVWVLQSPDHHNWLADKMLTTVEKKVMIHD
Description for D(4) dopamine receptor: Inhibition of dopamine D4 receptor

A word on the IC50: it is the concentration that inhibits the measured activity by half. Broadly, the Ki is the equilibrium dissociation constant of an inhibitor or competing ligand from its target. Read a low Ki as a stronger hold on the target. In data set [1], `COc1ccccc1N1CCN(CCN(C(=O)C23CC4CC(CC(I)(C4)C2)C3)c2ccccn2)CC1` returned an IC50 of 5.04 nM and a Ki of 2.15 nM.

As usually defined, the logD is the decadic logarithm of the distribution of all forms, ionised or not, between an organic phase and buffer at a given pH. Low values mean lower lipophilicity, high ones higher lipophilicity. Take `COc1ccccc1N1CCN(CCN(C(=O)C23C4C5C2C2C3C4C52I)c2ccccn2)CC1` (stereo not drawn): the inhibitory constant (Ki) in [2] was 78 nM; in [3], 185 nM; in [4] it was 161 nM; in data set [5], 121 nM; on D(4) dopamine receptor it was 329 nM; in [1], 1.11 nM. In addition, the Ki in data set [6] came out at 98 nM; in [7], 2.2 nM. Also, in “physchem”, the logD amounted to 4.14. Moreover, the 50% inhibitory concentration (IC50) in [1] stood at 2.59 nM.

In data set [1], `COc1ccccc1N1CCN(CCN(C(=O)C23CCC(I)(CC2)CC3)c2ccccn2)CC1` registered an IC50 of 2.61 nM and a Ki of 1.11 nM.

In [1], `COc1ccccc1N1CCN(CCN(C(=O)C23CCC(I)(CC2)C3)c2ccccn2)CC1` yielded an IC50 of 2.02 nM and a Ki of 0.87 nM.

In data set [1], `O=C(N(CCN1CCN(c2ccccc2O)CC1)c1ccccn1)C12CC3CC(C1)C(I)C(C3)C2` (stereo not drawn) registered an IC50 of 3.95 nM and a Ki of 1.68 nM.
